Tested on: MV-4-11 cells
Test: Gene expression microarray analysis (Affymetrix PrimeView) and GSEA
Format: cell-based, human
Design: RFU PODN (11730768_x_at) / Fold change /veh PODN (11730768_x_at) / RFU LINC00158 (11744669_a_at) / Fold change /veh LINC00158 (11744669_a_at) / RFU DUSP10 (11751237_a_at) / Fold change /veh DUSP10 (11751237_a_at) / RFU ID3 (11757404_x_at) / Fold change /veh ID3 (11757404_x_at) / RFU PLEKHG5 (11737974_s_at) / Fold change /veh PLEKHG5 (11737974_s_at) / RFU LRRC4B (11730491_at) / Fold change /veh LRRC4B (11730491_at) / RFU GIMAP4 (11747438_a_at) / Fold change /veh GIMAP4 (11747438_a_at) / RFU KRT8 (11758183_x_at) / Fold change /veh KRT8 (11758183_x_at) / RFU CNN1 (11734310_a_at) / Fold change /veh CNN1 (11734310_a_at) / RFU VPS37D (11726825_at) / Fold change /veh VPS37D (11726825_at) / RFU C10orf10 (11716522_x_at) / Fold change /veh C10orf10 (11716522_x_at) / RFU KIR2DL2 /// KIR2DL4 /// KIR2DL5A /// KIR2DL5B /// KIR2DS1 /// KIR2DS2 /// KIR2DS3 /// KIR2DS4 /// KIR3DL3 /// KIR3DL3 /// KIR3DS1 (11738374_at) / Fold change /veh KIR2DL2 /// KIR2DL4 /// KIR2DL5A /// KIR2DL5B /// KIR2DS1 /// KIR2DS2 /// KIR2DS3 /// KIR2DS4 /// KIR3DL3 /// KIR3DL3 /// KIR3DS1 (11738374_at) / RFU C1QL1 (11718748_at) / Fold change /veh C1QL1 (11718748_at) / RFU TMPRSS4 (11747572_a_at) / Fold change /veh TMPRSS4 (11747572_a_at) / RFU HAMP (11756126_x_at) / Fold change /veh HAMP (11756126_x_at) / RFU RNFT2 (11725882_a_at) / Fold change /veh RNFT2 (11725882_a_at) / RFU NR4A2 (11747474_a_at) / Fold change /veh NR4A2 (11747474_a_at) / RFU ABCC12 (11746883_a_at) / Fold change /veh ABCC12 (11746883_a_at) / RFU TMEM136 (11760407_x_at) / Fold change /veh TMEM136 (11760407_x_at) / RFU CLDN22 /// WWC2 (11732394_at) / Fold change /veh CLDN22 /// WWC2 (11732394_at) / RFU HLA-DPB1 (11760878_x_at) / Fold change /veh HLA-DPB1 (11760878_x_at) / RFU SPINT1 (11716480_a_at) / Fold change /veh SPINT1 (11716480_a_at) / RFU GAP43 (11754022_s_at) / Fold change /veh GAP43 (11754022_s_at) / RFU A4GNT (11735810_at) / Fold change /veh A4GNT (11735810_at) / RFU PRB3 (11715151_x_at) / Fold change /veh PRB3 (11715151_x_at) / RFU TUBB4B (11761932_at) / Fold change /veh TUBB4B (11761932_at) / RFU CAPN14 (11732068_a_at) / Fold change /veh CAPN14 (11732068_a_at) / RFU TMCC2 (11721928_a_at) / Fold change /veh TMCC2 (11721928_a_at) / RFU IRGQ (11745062_a_at) / Fold change /veh IRGQ (11745062_a_at) / RFU FAM174B (11720279_a_at) / Fold change /veh FAM174B (11720279_a_at) / RFU TMPRSS4 (11748680_a_at) / Fold change /veh TMPRSS4 (11748680_a_at) / RFU FAM212B (11763350_a_at) / Fold change /veh FAM212B (11763350_a_at) / RFU PLEKHG5 (11743358_a_at) / Fold change /veh PLEKHG5 (11743358_a_at) / RFU ZSCAN30 (11745921_a_at) / Fold change /veh ZSCAN30 (11745921_a_at) / RFU CMKLR1 (11741424_a_at) / Fold change /veh CMKLR1 (11741424_a_at) / RFU LOC101060620 /// MAPK8IP1 (11723275_at) / Fold change /veh LOC101060620 /// MAPK8IP1 (11723275_at) / RFU SPTSSB (11747773_x_at) / Fold change /veh SPTSSB (11747773_x_at) / RFU PRSS12 (11739890_at) / Fold change /veh PRSS12 (11739890_at) / RFU BIN1 (11741810_x_at) / Fold change /veh BIN1 (11741810_x_at) / RFU WNT11 (11732464_a_at) / Fold change /veh WNT11 (11732464_a_at) / RFU C10orf10 (11716521_a_at) / Fold change /veh C10orf10 (11716521_a_at) / RFU C5orf56 (11738089_at) / Fold change /veh C5orf56 (11738089_at) / RFU CYB561 (11721691_x_at) / Fold change /veh CYB561 (11721691_x_at) / RFU ANKRD19P (11752326_a_at) / Fold change /veh ANKRD19P (11752326_a_at) / RFU OR2T12 /// OR2T33 /// OR2T8 (11738714_s_at) / Fold change /veh OR2T12 /// OR2T33 /// OR2T8 (11738714_s_at) / RFU VCAN (11748164_a_at) / Fold change /veh VCAN (11748164_a_at) / RFU JSRP1 (11732532_at) / Fold change /veh JSRP1 (11732532_at) / RFU KRTAP10-11 (11738290_x_at) / Fold change /veh KRTAP10-11 (11738290_x_at) / RFU MYO3A (11730013_a_at) / Fold change /veh MYO3A (11730013_a_at) / RFU EBF3 (11725865_a_at) / Fold change /veh EBF3 (11725865_a_at) / RFU CAMK2N1 (11719241_x_at) / Fold change /veh CAMK2N1 (11719241_x_at) / RFU C5orf56 (11738088_a_at) / Fold change /veh C5orf56 (11738088_a_at) / RFU OLFML3 (11715873_a_at) / Fold change /veh OLFML3 (11715873_a_at) / RFU LOC100653217 /// NTM (11731650_a_at) / Fold change /veh LOC100653217 /// NTM (11731650_a_at) / RFU MAPK11 (11762145_a_at) / Fold change /veh MAPK11 (11762145_a_at) / RFU FIZ1 (11724087_x_at) / Fold change /veh FIZ1 (11724087_x_at) / RFU OASL (11726364_x_at) / Fold change /veh OASL (11726364_x_at) / RFU SOX15 (11748057_x_at) / Fold change /veh SOX15 (11748057_x_at) / RFU CD79A (11719716_a_at) / Fold change /veh CD79A (11719716_a_at) / RFU HIST1H1D (11736915_at) / Fold change /veh HIST1H1D (11736915_at) / RFU CASKIN2 (11723855_a_at) / Fold change /veh CASKIN2 (11723855_a_at) / RFU LOC730098 (11760151_x_at) / Fold change /veh LOC730098 (11760151_x_at) / RFU OR4N2 (11742367_at) / Fold change /veh OR4N2 (11742367_at) / RFU PRRT2 (11749266_a_at) / Fold change /veh PRRT2 (11749266_a_at) / RFU SNX32 (11753110_a_at) / Fold change /veh SNX32 (11753110_a_at) / RFU CDHR5 (11726645_a_at) / Fold change /veh CDHR5 (11726645_a_at) / RFU RCAN1 (11760418_a_at) / Fold change /veh RCAN1 (11760418_a_at) / RFU FAM167A (11723789_a_at) / Fold change /veh FAM167A (11723789_a_at) / RFU FAM26E (11764081_at) / Fold change /veh FAM26E (11764081_at) / RFU ISYNA1 (11749810_s_at) / Fold change /veh ISYNA1 (11749810_s_at) / RFU ACY1 (11761880_at) / Fold change /veh ACY1 (11761880_at) / RFU 11764098_at / Fold change /veh 11764098_at / RFU SAMD14 (11745864_x_at) / Fold change /veh SAMD14 (11745864_x_at) / RFU NPB (11741838_a_at) / Fold change /veh NPB (11741838_a_at) / RFU TMPRSS6 (11731388_a_at) / Fold change /veh TMPRSS6 (11731388_a_at) / RFU KRTAP10-2 (11738614_at) / Fold change /veh KRTAP10-2 (11738614_at) / RFU ARHGAP8 /// PRR5-ARHGAP8 (11727945_x_at) / Fold change /veh ARHGAP8 /// PRR5-ARHGAP8 (11727945_x_at) / RFU KRTAP5-7 /// NADSYN1 (11734609_at) / Fold change /veh KRTAP5-7 /// NADSYN1 (11734609_at) / RFU RASL12 (11751679_a_at) / Fold change /veh RASL12 (11751679_a_at) / RFU CDKN2B (11736163_a_at) / Fold change /veh CDKN2B (11736163_a_at) / RFU PRF1 (11729649_at) / Fold change /veh PRF1 (11729649_at) / RFU, ZNF638 /// ZNF638-IT1 / Fold change vs veh, ZNF638 /// ZNF638-IT1 / RFU, PANK3 / Fold change vs veh, PANK3 / RFU, SH3YL1 / Fold change vs veh, SH3YL1 / RFU, ZEB2 / Fold change vs veh, ZEB2 / RFU, NRIP1 / Fold change vs veh, NRIP1 / RFU, PTTG1IP / Fold change vs veh, PTTG1IP / RFU, CAPN2 / Fold change vs veh, CAPN2 / RFU, MED14 / Fold change vs veh, MED14 / RFU, SNORA58 / Fold change vs veh, SNORA58 / RFU, C1orf63 / Fold change vs veh, C1orf63 / RFU, LRRFIP1 / Fold change vs veh, LRRFIP1 / RFU, NDUFAF7 / Fold change vs veh, NDUFAF7 / RFU, SLC12A2 / Fold change vs veh, SLC12A2 / RFU, IBTK / Fold change vs veh, IBTK / RFU, ESF1 / Fold change vs veh, ESF1 / Fold change vs veh, TMEM50B / RFU, TAOK1 / Fold change vs veh, TAOK1 / RFU, ACBD3 / Fold change vs veh, ACBD3 / RFU, TMA16 / Fold change vs veh, TMA16 / RFU, RWDD3 / Fold change vs veh, RWDD3 / RFU, BCAT1 / Fold change vs veh, BCAT1 / RFU, EDEM3 / Fold change vs veh, EDEM3 / RFU, TMEM33 / Fold change vs veh, TMEM33 / RFU, WDR75 / Fold change vs veh, WDR75 / RFU, AHCTF1 / Fold change vs veh, AHCTF1 / RFU, TFRC / Fold change vs veh, TFRC / RFU, ZDHHC17 / Fold change vs veh, ZDHHC17 / RFU, NOM1 / Fold change vs veh, NOM1 / RFU, ARL8B / Fold change vs veh, ARL8B / RFU, ZBTB11 / Fold change vs veh, ZBTB11 / RFU, TAMM41 / Fold change vs veh, TAMM41 / RFU, KIAA1704 /// LOC100996395 / Fold change vs veh, KIAA1704 /// LOC100996395 / RFU, ING1 / Fold change vs veh, ING1 / RFU, TRMT61B / Fold change vs veh, TRMT61B / RFU, FUBP3 / Fold change vs veh, FUBP3 / RFU, TP53 / Fold change vs veh, TP53 / RFU, TNKS2 / Fold change vs veh, TNKS2 / RFU, ZFP14 / Fold change vs veh, ZFP14 / RFU, ACTR2 / Fold change vs veh, ACTR2 / RFU, PPP3R1 / Fold change vs veh, PPP3R1 / RFU, PIK3R1 / Fold change vs veh, PIK3R1 / RFU, HNRNPA1 / Fold change vs veh, HNRNPA1 / RFU, RNF170 / Fold change vs veh, RNF170 / RFU, ZNF28 / Fold change vs veh, ZNF28 / RFU, RNGTT / Fold change vs veh, RNGTT / RFU, OGT / Fold change vs veh, OGT / RFU, BRD1 / Fold change vs veh, BRD1 / RFU, MARS / Fold change vs veh, MARS / RFU, ZNF655 / Fold change vs veh, ZNF655 / RFU, FAHD1 / Fold change vs veh, FAHD1 / RFU, BDP1 / Fold change vs veh, BDP1 / RFU, LRRCC1 / Fold change vs veh, LRRCC1 / RFU, ARID1A / Fold change vs veh, ARID1A / RFU, ZNF146 / Fold change vs veh, ZNF146 / RFU, ZNF330 / Fold change vs veh, ZNF330 / RFU, GPN3 / Fold change vs veh, GPN3 / RFU, C9orf123 / Fold change vs veh, C9orf123 / RFU, N4BP2L2 / Fold change vs veh, N4BP2L2 / RFU, ARFIP1 / Fold change vs veh, ARFIP1 / RFU, FAM179B / Fold change vs veh, FAM179B / RFU, BCL10 / Fold change vs veh, BCL10 / RFU, UHRF1BP1L / Fold change vs veh, UHRF1BP1L / RFU, BET1 / Fold change vs veh, BET1 / RFU, CNOT2 / Fold change vs veh, CNOT2 / RFU, ZNF268 / Fold change vs veh, ZNF268 / Fold change vs veh, ZNF507 / RFU, DGCR2 / Fold change vs veh, DGCR2 / RFU, WDSUB1 / Fold change vs veh, WDSUB1 / Fold change vs veh, HSP90B1 /// MIR3652 / RFU, ADSS / Fold change vs veh, ADSS / RFU, GK / Fold change vs veh, GK / RFU, ZNF148 / Fold change vs veh, ZNF148 / RFU, TAF9 / Fold change vs veh, TAF9 / RFU, SLC1A5 / Fold change vs veh, SLC1A5 / RFU, SLMO2 / Fold change vs veh, SLMO2 / RFU, ABCC4 / Fold change vs veh, ABCC4 / RFU, LOC101060439 /// RAP1B / Fold change vs veh, LOC101060439 /// RAP1B / RFU, RFX7 / Fold change vs veh, RFX7 / RFU, GTPBP10 / Fold change vs veh, GTPBP10 / RFU, CNEP1R1 / Fold change vs veh, CNEP1R1 / RFU, BIVM-ERCC5 /// ERCC5 / Fold change vs veh, BIVM-ERCC5 /// ERCC5 / RFU, ILF3 / Fold change vs veh, ILF3 / RFU 11762660_at / Fold change /veh 11762660_at / RFU VCAN (11757783_s_at) / Fold change /veh VCAN (11757783_s_at) / RFU DDX43 (11728927_at) / Fold change /veh DDX43 (11728927_at) / RFU KRT8 (11758188_x_at) / Fold change /veh KRT8 (11758188_x_at) / RFU NKD1 (11759106_at) / Fold change /veh NKD1 (11759106_at) / RFU SRD5A1 (11742802_a_at) / Fold change /veh SRD5A1 (11742802_a_at) / RFU TPSAB1 /// TPSB2 (11721975_s_at) / Fold change /veh TPSAB1 /// TPSB2 (11721975_s_at) / RFU GSTM3 (11746129_a_at) / Fold change /veh GSTM3 (11746129_a_at) / RFU IL23R (11737362_x_at) / Fold change /veh IL23R (11737362_x_at) / RFU TMEM51 (11727254_a_at) / Fold change /veh TMEM51 (11727254_a_at) / RFU PIWIL2 (11732686_x_at) / Fold change /veh PIWIL2 (11732686_x_at) / RFU ORM1 (11744905_x_at) / Fold change /veh ORM1 (11744905_x_at) / RFU CCDC152 (11743942_at) / Fold change /veh CCDC152 (11743942_at) / RFU ECM1 (11717891_a_at) / Fold change /veh ECM1 (11717891_a_at) / RFU IL23R (11748794_a_at) / Fold change /veh IL23R (11748794_a_at) / RFU TNFAIP8L3 (11732012_x_at) / Fold change /veh TNFAIP8L3 (11732012_x_at) / RFU MBOAT4 (11741988_at) / Fold change /veh MBOAT4 (11741988_at) / RFU 11764193_at / Fold change /veh 11764193_at / RFU TMEM53 (11763286_at) / Fold change /veh TMEM53 (11763286_at) / RFU MAGEB2 (11727129_at) / Fold change /veh MAGEB2 (11727129_at) / RFU TMEM200A (11744735_a_at) / Fold change /veh TMEM200A (11744735_a_at) / RFU CCDC152 (11751479_a_at) / Fold change /veh CCDC152 (11751479_a_at) / RFU FAM211A (11726209_a_at) / Fold change /veh FAM211A (11726209_a_at) / RFU RGS16 (11746705_a_at) / Fold change /veh RGS16 (11746705_a_at) / RFU VCAN (11755009_s_at) / Fold change /veh VCAN (11755009_s_at) / RFU RHOB (11743442_s_at) / Fold change /veh RHOB (11743442_s_at) / RFU RGS16 (11720943_a_at) / Fold change /veh RGS16 (11720943_a_at) / RFU RGS16 (11720944_at) / Fold change /veh RGS16 (11720944_at) / RFU, VPS4B / Fold change vs veh, VPS4B / RFU, CREB1 / Fold change vs veh, CREB1 / RFU, DNAJC13 / Fold change vs veh, DNAJC13 / RFU, GNAQ / Fold change vs veh, GNAQ / RFU, CDK5R1 / Fold change vs veh, CDK5R1 / RFU, ZRANB3 / Fold change vs veh, ZRANB3 / RFU, CUL4A / Fold change vs veh, CUL4A / RFU, CCNY / Fold change vs veh, CCNY / RFU, UFL1 / Fold change vs veh, UFL1 / RFU, COG3 / Fold change vs veh, COG3 / RFU, DIAPH2 / Fold change vs veh, DIAPH2 / RFU, SKA2 / Fold change vs veh, SKA2 / RFU, AFF3 / Fold change vs veh, AFF3 / RFU, LMF1 / Fold change vs veh, LMF1 / RFU, IPO11 / Fold change vs veh, IPO11 / RFU, DFFB / Fold change vs veh, DFFB / RFU, FOXP1 / Fold change vs veh, FOXP1 / RFU, CARD8 / Fold change vs veh, CARD8 / RFU, STRN3 / Fold change vs veh, STRN3 / RFU, ADK / Fold change vs veh, ADK / RFU, RASSF2 / Fold change vs veh, RASSF2 / RFU, WIPF1 / Fold change vs veh, WIPF1 / RFU, LARP1B / Fold change vs veh, LARP1B / RFU, RASA1 / Fold change vs veh, RASA1 / RFU, RB1 / Fold change vs veh, RB1 / RFU, PPFIA1 / Fold change vs veh, PPFIA1 / RFU, MAT2A / Fold change vs veh, MAT2A / RFU, CCT5 / Fold change vs veh, CCT5 / RFU, WDR92 / Fold change vs veh, WDR92 / RFU, CUX1 / Fold change vs veh, CUX1 / RFU, TTC7A / Fold change vs veh, TTC7A / RFU, TMEM135 / Fold change vs veh, TMEM135 / RFU, DEPTOR / Fold change vs veh, DEPTOR / RFU, CPM / Fold change vs veh, CPM / RFU, DNAJB6 / Fold change vs veh, DNAJB6 / RFU, CACNA2D3 / Fold change vs veh, CACNA2D3 / RFU, DTX4 / Fold change vs veh, DTX4 / RFU, TFCP2 / Fold change vs veh, TFCP2 / RFU, GMCL1 /// GMCL1P1 / Fold change vs veh, GMCL1 /// GMCL1P1 / RFU, AEBP2 / Fold change vs veh, AEBP2 / RFU, SNHG1 /// SNORD22 /// SNORD25 /// SNORD26 /// SNORD27 /// SNORD28 /// SNORD29 /// SNORD31 / Fold change vs veh, SNHG1 /// SNORD22 /// SNORD25 /// SNORD26 /// SNORD27 /// SNORD28 /// SNORD29 /// SNORD31 / Fold change (Aza/veh), C12orf56 (ProbeSet 11735607_a_at) / Fold change (ACY-1035/veh), C12orf56 (ProbeSet 11735607_a_at) / Fold change (Aza/veh), FGFR1OP (ProbeSet 11751329_s_at) / Fold change (ACY-1035/veh), FGFR1OP (ProbeSet 11751329_s_at) / Fold change (Aza/veh), VPS36 (ProbeSet 11739960_a_at) / Fold change (ACY-1035/veh), VPS36 (ProbeSet 11739960_a_at) / RFU SYPL1 (11715823_x_at) / Fold change /veh SYPL1 (11715823_x_at) / RFU IGFBP7 (11715501_s_at) / Fold change /veh IGFBP7 (11715501_s_at) / RFU REEP3 (11722064_at) / Fold change /veh REEP3 (11722064_at) / RFU IGLL1 (11728026_x_at) / Fold change /veh IGLL1 (11728026_x_at): dose or concentration left out as unconfirmed
Conditions: MV-4-11 cells, 48 hours

## Nc1ncn([C@@H]2O[C@H](CO)[C@@H](O)[C@H]2O)c(=O)n1 [azacitidine]
  RFU RNFT2 (11725882_a_at): 15.64 RFU

— PMC5218480 (PLoS ONE, 2017)
